Test systems include MDA-MB-435; UACC-257 melanoma; A498 renal; NCI/ADR-RES ovarian; HCT-15 colon; CCRF-CEM leukemia; ACHN renal; T-47D breast; HT29 colon; U251 CNS.
What all share (assay): NCI tumour cell line growth inhibition, 48 h

Molecules are shown by their SMILES. Where “and” joins values, the source holds several entries; their conditions need not be identical. Equal entries are not always repeated.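 Assay format: 96-well plates, 48-hour exposure. GI50 = concentration required for 50% inhibition of growth. TGI denotes the concentration required for complete inhibition of growth.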

In the case of `Fc1ccc2nc(-c3nc(-c4ccccc4)n4ccccc34)[nH]c2c1`, the GI50 with MDA-MB-435 was 2.59 µM; in the experiment on UACC-257 melanoma, 2.16 µM; in the experiment on A498 renal, 2.08 µM; with NCI/ADR-RES ovarian it was 2.23 µM; in the experiment with HCT-15 colon, 4.29 µM; with CCRF-CEM leukemia, 5.28 µM. Moreover, the GI50 in the experiment on ACHN renal was 2.25 µM; in the experiment with T-47D breast, 1.06 µM; with HT29 colon it was 3.25 µM; with U251 CNS, 2.22 µM. Besides, the TGI in the experiment on MDA-MB-435 is 8.94 µM; with UACC-257 melanoma, 4.76 µM; in the experiment on A498 renal it was 6.46 µM; in the experiment on NCI/ADR-RES ovarian, 6.01 µM; in the experiment on HCT-15 colon it was 27.7 µM; in the experiment with CCRF-CEM leukemia, greater than 100 µM. The TGI in the experiment with ACHN renal came to 5.94 µM; in the experiment on T-47D breast, 4.76 µM; in the experiment with HT29 colon, 9.15 µM; in the experiment on U251 CNS, 5.42 µM.
Consider `N#Cc1cccc(Nc2ncc(-c3ccccc3)o2)c1`, for which the GI50 with MDA-MB-435 is greater than 25 µM; in the experiment on UACC-257 melanoma, greater than 25 µM; in the experiment with A498 renal, greater than 22.2 µM; in the experiment with NCI/ADR-RES ovarian, 19.2 µM; in the experiment with HCT-15 colon, 16.8 µM; in the experiment on CCRF-CEM leukemia, 20.8 µM. Besides, the GI50 in the experiment on ACHN renal is 8.4 µM; with T-47D breast it was 11.7 µM; in the experiment with HT29 colon, greater than 25 µM; with U251 CNS it was 10.6 µM. Further, the TGI in the experiment with MDA-MB-435, with UACC-257 melanoma, in the experiment on A498 renal, in the experiment on NCI/ADR-RES ovarian, in the experiment with HCT-15 colon and with CCRF-CEM leukemia was greater than 25 µM each time. Besides, the TGI in the experiment on ACHN renal, in the experiment on T-47D breast, in the experiment on HT29 colon and in the experiment on U251 CNS was greater than 25 µM each time.
For `O=S(=O)(O)c1ccc2cc3nn(-c4ccc(/C=C/c5ccc(-n6nc7cc8ccc(S(=O)(=O)O)cc8cc7n6)cc5S(=O)(=O)O)c(S(=O)(=O)O)c4)nc3cc2c1`, the GI50 was greater than 100 µM in the experiment on MDA-MB-435; greater than 100 µM in the experiment with UACC-257 melanoma; greater than 100 µM in the experiment with A498 renal; greater than 100 µM in the experiment with NCI/ADR-RES ovarian; 6.21 µM with HCT-15 colon; 30.8 µM in the experiment with CCRF-CEM leukemia. Also, the GI50 in the experiment with ACHN renal is 81.6 µM; in the experiment on T-47D breast it was greater than 100 µM; in the experiment with HT29 colon, 59.1 µM; in the experiment on U251 CNS it was 50.3 µM. Also, the TGI in the experiment on MDA-MB-435, in the experiment with UACC-257 melanoma, in the experiment with A498 renal, in the experiment on NCI/ADR-RES ovarian, in the experiment with HCT-15 colon and with CCRF-CEM leukemia was greater than 100 µM in each case. The TGI in the experiment on ACHN renal, in the experiment on T-47D breast, in the experiment with HT29 colon and in the experiment with U251 CNS was greater than 100 µM each time.
`COCCOCCOCCOCCOC(=O)OC[n+]1ccc(NC(=NCCCCCCOc2ccc(Cl)cc2)NC#N)cc1`: the GI50 with MDA-MB-435 was less than 0.01 µM; in the experiment on UACC-257 melanoma, 7.79 µM; in the experiment with A498 renal, 1.28 µM; in the experiment with NCI/ADR-RES ovarian, less than 0.0395 µM; in the experiment with HCT-15 colon it was less than 0.01 µM; in the experiment with CCRF-CEM leukemia it was less than 0.01 µM. The values for the GI50 in the experiment with ACHN renal, in the experiment on T-47D breast and in the experiment with HT29 colon were 10.8 µM, 0.112 µM and 0.0369 µM, respectively. The TGI in the experiment with MDA-MB-435 came to 14.7 µM; in the experiment on UACC-257 melanoma, 21.8 µM; with A498 renal, 15.4 µM; with NCI/ADR-RES ovarian, 20.2 µM; in the experiment on HCT-15 colon it was 17.9 µM; in the experiment with CCRF-CEM leukemia it was 15 µM. For the same compound, the TGI in the experiment with ACHN renal turned out to be 23.4 µM; in the experiment with T-47D breast it was 17.5 µM; with HT29 colon, 18.2 µM; in the experiment on U251 CNS, 18.7 µM.
Turning to `COc1ccc(S(=O)(=O)N2CCNCC2)cc1OC`, the GI50 in the experiment on MDA-MB-435, in the experiment on UACC-257 melanoma, in the experiment on A498 renal, in the experiment on NCI/ADR-RES ovarian, in the experiment on HCT-15 colon and in the experiment with CCRF-CEM leukemia was greater than 100 µM throughout. Also, the GI50 in the experiment with ACHN renal, in the experiment with T-47D breast, in the experiment on HT29 colon and in the experiment on U251 CNS was greater than 100 µM each time. The TGI in the experiment on MDA-MB-435, in the experiment with UACC-257 melanoma, in the experiment on A498 renal, with NCI/ADR-RES ovarian, with HCT-15 colon and in the experiment on CCRF-CEM leukemia was greater than 100 µM each time. In addition, the TGI in the experiment on ACHN renal, in the experiment on T-47D breast, with HT29 colon and in the experiment with U251 CNS was greater than 100 µM throughout.
With `N#CCNC(=O)c1ccc(-c2ccnc(Nc3ccc(N4CCOCC4)cc3)n2)cc1`, the GI50 is 4.75 µM and 2.82 µM with MDA-MB-435; > 10 µM and 4.39 µM in the experiment with UACC-257 melanoma; 2.35 µM and 1.91 µM in the experiment on A498 renal; > 10 µM and 12.4 µM with NCI/ADR-RES ovarian; 3.1 µM and 2.3 µM in the experiment with HCT-15 colon; 2.5 µM and 2.51 µM with CCRF-CEM leukemia. For the same compound, the GI50 with ACHN renal is 1.35 µM and 0.531 µM; in the experiment on T-47D breast it was > 10 µM and 9.94 µM; in the experiment on HT29 colon, 5.71 µM and 5.38 µM; in the experiment with U251 CNS, 3.46 µM and 1.79 µM. The TGI with MDA-MB-435 is greater than 100 µM; with UACC-257 melanoma, greater than 100 µM; in the experiment on A498 renal, 8.73 µM and 7.66 µM; with NCI/ADR-RES ovarian, greater than 100 µM; with HCT-15 colon, greater than 100 µM; in the experiment with CCRF-CEM leukemia, greater than 30 µM. The TGI in the experiment with ACHN renal was greater than 37.1 µM; in the experiment with T-47D breast it was > 10 µM and 99.8 µM; in the experiment with HT29 colon, greater than 100 µM; with U251 CNS, > 10 µM and 34.8 µM.
In the case of `C=CCN(CC=C)C(=O)[C@H](CC)[C@@H]1CC[C@@H](C)[C@@H]([C@H](C)[C@@H](O)[C@@H](C)C(=O)[C@H](CC)C2O[C@]3(C=C[C@@H](O)[C@]4(CC[C@@](C)([C@H]5CC[C@](O)(CC)[C@H](C)O5)O4)O3)[C@H](C)C[C@@H]2C)O1` (stereo partly drawn), the GI50 was 2.71 µM in the experiment on MDA-MB-435; 2.35 µM with UACC-257 melanoma; 2.07 µM in the experiment on A498 renal; 2.7 µM with NCI/ADR-RES ovarian; 2.05 µM in the experiment with HCT-15 colon; 3.19 µM in the experiment with CCRF-CEM leukemia. Also, the GI50 in the experiment with ACHN renal is 2.9 µM; with T-47D breast it was 2.37 µM; in the experiment on HT29 colon, 3.12 µM; with U251 CNS, 2.78 µM. Besides, the TGI in the experiment on MDA-MB-435 worked out at 8.5 µM; with UACC-257 melanoma, 8.25 µM; in the experiment on A498 renal, 5.32 µM; in the experiment on NCI/ADR-RES ovarian, 9.82 µM; in the experiment with HCT-15 colon, 4.81 µM; in the experiment with CCRF-CEM leukemia, 11.5 µM. In addition, the TGI in the experiment on ACHN renal came to 11 µM; in the experiment with T-47D breast, 13.5 µM; in the experiment on HT29 colon it was 16.1 µM; in the experiment on U251 CNS it was 10.1 µM.
Turning to `O=[N+]([O-])c1cc(Cc2cc([N+](=O)[O-])c3cccnc3c2O)c(O)c2ncccc12`, the TGI is 32.7 µM with MDA-MB-435; 14.1 µM in the experiment with UACC-257 melanoma; 31.8 µM in the experiment with A498 renal; 54.1 µM in the experiment with NCI/ADR-RES ovarian; 66.4 µM in the experiment with HCT-15 colon; 6.39 µM in the experiment with CCRF-CEM leukemia. The TGI with ACHN renal is 41.3 µM; in the experiment with T-47D breast, 18 µM; in the experiment with HT29 colon, greater than 73.1 µM; in the experiment on U251 CNS it was 19.1 µM.
Regarding `COc1cc2c(cc1NC(=O)C(Cl)Cl)-c1ccc(NC(=O)C(Cl)Cl)cc1C2`, the GI50 in the experiment with MDA-MB-435 was 0.378 µM; in the experiment with UACC-257 melanoma, 1.02 µM; in the experiment on A498 renal, 0.551 µM; in the experiment on NCI/ADR-RES ovarian, 0.789 µM; with HCT-15 colon, 0.354 µM; in the experiment on CCRF-CEM leukemia, 12.1 µM. For the same compound, the GI50 in the experiment with ACHN renal was 0.268 µM; in the experiment with T-47D breast, 0.707 µM; in the experiment on HT29 colon it was 0.201 µM; in the experiment with U251 CNS, 0.245 µM. The TGI in the experiment on MDA-MB-435 is 1.12 µM; in the experiment with UACC-257 melanoma, 3.54 µM; in the experiment on A498 renal, 1.89 µM; with NCI/ADR-RES ovarian, 4.42 µM; in the experiment with HCT-15 colon, 1.94 µM; in the experiment with CCRF-CEM leukemia, 98.6 µM. Besides, the TGI in the experiment on ACHN renal was determined as 0.971 µM; in the experiment on T-47D breast it was 8.6 µM; in the experiment on HT29 colon it was 0.641 µM; in the experiment with U251 CNS, 0.708 µM.
As to `O=C(c1ccco1)c1c(C(F)(F)F)n([O-])c2cc(F)c(F)cc2[n+]1=O`, the GI50 in the experiment with MDA-MB-435 is 0.553 µM; with UACC-257 melanoma, 1.29 µM; in the experiment on A498 renal it was 4.88 µM; in the experiment with NCI/ADR-RES ovarian, 0.0648 µM; in the experiment with HCT-15 colon, less than 0.0464 µM; in the experiment with ACHN renal, 0.122 µM. Moreover, the GI50 in the experiment on T-47D breast was 0.782 µM; in the experiment on HT29 colon it was 0.609 µM; in the experiment on U251 CNS, 0.153 µM. Moreover, the TGI was 3.45 µM in the experiment on MDA-MB-435; 3.01 µM with UACC-257 melanoma; 17.3 µM in the experiment on A498 renal; 0.179 µM in the experiment with NCI/ADR-RES ovarian; 0.149 µM with HCT-15 colon; greater than 23 µM in the experiment with CCRF-CEM leukemia. In addition, the TGI with ACHN renal is 0.256 µM; in the experiment with T-47D breast it was 22.7 µM; in the experiment with HT29 colon it was greater than 100 µM; in the experiment on U251 CNS, 0.291 µM.
In the case of `CN(C)c1nc(N)c(C#N)c(C#N)c1C#N`, the TGI in the experiment on MDA-MB-435, with UACC-257 melanoma, in the experiment on A498 renal, in the experiment with NCI/ADR-RES ovarian, in the experiment on HCT-15 colon and in the experiment on CCRF-CEM leukemia was greater than 10 µM throughout. For the same compound, the TGI in the experiment with ACHN renal, in the experiment with T-47D breast, in the experiment on HT29 colon and with U251 CNS was greater than 10 µM in each case.
Turning to `O=c1[nH]c(=S)[nH]c(-c2ccccc2)c1Cc1c(O)ccc2ccccc12`, the TGI is 93 µM with MDA-MB-435; 62.7 µM with UACC-257 melanoma; 44.7 µM in the experiment with A498 renal; greater than 100 µM with NCI/ADR-RES ovarian; greater than 100 µM with HCT-15 colon; 41 µM in the experiment with CCRF-CEM leukemia. For the same compound, the TGI was greater than 100 µM with ACHN renal, 58 µM in the experiment on T-47D breast, greater than 100 µM in the experiment with HT29 colon and greater than 100 µM in the experiment on U251 CNS.

The record behind these values is PubChem BioAssay (NCI).
